Source: patent US20230085307A1, “PYRIDAZINONE COMPOUND AND HERBICIDE” (NISSAN CHEMICAL CORPORATION, priority 2019, published 2023)

How the values were obtained:
[1] = test system: wild oat; experiment: Test Example 4: herbicidal effect by soil treatment (Table 19, symbol I); type: in vivo, wild oat (Avena fatua); details: amount of applied herbicide 320 g/ha
In short: (§1)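 Applied as a water-diluted emulsion, the compound was sprayed onto soil covering newly sown seeds. Evaluation came three weeks after application, in a greenhouse held at 25° C. to 30° C.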

[2] = test system: blackgrass; experiment: Test Example 4: herbicidal effect by soil treatment (Table 19, symbol J); type: in vivo, blackgrass (Alopecurus myosuroides); details: amount of applied herbicide 320 g/ha
In short: as §1

[3] = test system: barnyard grass; experiment: Test Example 3: herbicidal effect by foliage application, Wagner pot (Table 18, symbol H); type: in vivo, barnyard grass (Echinochloa crus-galli); details: amount of applied herbicide 320 g/ha
In short: (§2)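 Plants were sown in alluvial soil held under 0.1–0.5 cm standing water and grown 14 days in a greenhouse at 25–30 °C. An emulsifiable formulation, water-diluted to the set dose, was then sprayed onto the foliage, and effects were scored three weeks later using previously defined criteria.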

[4] = test system: persian speedwell; experiment: Test Example 4: herbicidal effect by soil treatment (Table 19, symbol R); type: in vivo, Persian speedwell (Veronica persica); details: amount of applied herbicide 320 g/ha
In short: as §1

[5] = test system: false cleavers; experiment: Test Example 4: herbicidal effect by soil treatment (Table 19, symbol Q); type: in vivo, false cleavers (Galium spurium); details: amount of applied herbicide 320 g/ha
In short: as §1

[6] = test system: southern crabgrass; experiment: Test Example 4: herbicidal effect by soil treatment (Table 19, symbol F); type: in vivo, southern crabgrass (Digitaria ciliaris); details: amount of applied herbicide 320 g/ha
In short: as §1

[7] = test system: velvetleaf; experiment: Test Example 5: herbicidal effect by foliage application, plastic box (Table 20, symbol M); type: in vivo, velvetleaf (Abutilon theophrasti); details: foliage application, 320 g/ha
In short: (§3)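 Sow seeds spot-wise in sterilized diluvial soil; cover with ~1.5 cm soil. Grow 14 days in greenhouse, 25° C. to 30° C. Spray foliage with emulsion diluted to predetermined amount. Rate effect after 3 weeks.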

[8] = test system: green foxtail; experiment: Test Example 5: herbicidal effect by foliage application, plastic box (Table 20, symbol G); type: in vivo, green foxtail (Setaria viridis); details: foliage application, 320 g/ha
In short: as §3

[9] = test system: rice flat sedge; experiment: Test Example 3: herbicidal effect by foliage application, Wagner pot (Table 18, symbol E); type: in vivo, rice flat sedge (Cyperus iria); details: amount of applied herbicide 320 g/ha
In short: as §2

[10] = test system: velvetleaf; experiment: Test Example 4: herbicidal effect by soil treatment (Table 19, symbol M); type: in vivo, velvetleaf (Abutilon theophrasti); details: amount of applied herbicide 320 g/ha
In short: as §1

[11] = test system: false cleavers; experiment: Test Example 5: herbicidal effect by foliage application, plastic box (Table 20, symbol Q); type: in vivo, false cleavers (Galium spurium); details: foliage application, 320 g/ha
In short: as §3

[12] = test system: lambsquarters; experiment: Test Example 4: herbicidal effect by soil treatment (Table 19, symbol O); type: in vivo, lambsquarters (Chenopodium album); details: amount of applied herbicide 320 g/ha
In short: as §1

[13] = test system: Chinese sprangletop; experiment: Test Example 3: herbicidal effect by foliage application, Wagner pot (Table 18, symbol D); type: in vivo, chinese sprangletop (Leptochloa chinensis); details: amount of applied herbicide 320 g/ha
In short: as §2

[14] = test system: persian speedwell; experiment: Test Example 5: herbicidal effect by foliage application, plastic box (Table 20, symbol R); type: in vivo, Persian speedwell (Veronica persica); details: foliage application, 320 g/ha
In short: as §3

[15] = test system: barnyard grass; experiment: Test Example 5: herbicidal effect by foliage application, plastic box (Table 20, symbol H); type: in vivo, barnyard grass (Echinochloa crus-galli); details: foliage application, 320 g/ha
In short: as §3

[16] = test system: lambsquarters; experiment: Test Example 5: herbicidal effect by foliage application, plastic box (Table 20, symbol O); type: in vivo, lambsquarters (Chenopodium album); details: foliage application, 320 g/ha
In short: as §3

[17] = test system: chickweed; experiment: Test Example 4: herbicidal effect by soil treatment (Table 19, symbol P); type: in vivo, common chickweed (Stellaria media); details: amount of applied herbicide 320 g/ha
In short: as §1

[18] = test system: southern crabgrass; experiment: Test Example 5: herbicidal effect by foliage application, plastic box (Table 20, symbol F); type: in vivo, southern crabgrass (Digitaria ciliaris); details: foliage application, 320 g/ha
In short: as §3

[19] = test system: redroot pigweed; experiment: Test Example 5: herbicidal effect by foliage application, plastic box (Table 20, symbol N); type: in vivo, redroot pigweed (Amaranthus retroflexus); details: foliage application, 320 g/ha
In short: as §3

[20] = test system: windgrass; experiment: Test Example 5: herbicidal effect by foliage application, plastic box (Table 20, symbol L); type: in vivo, windgrass (Apera spica-venti); details: foliage application, 320 g/ha
In short: as §3

[21] = test system: Italian ryegrass; experiment: Test Example 4: herbicidal effect by soil treatment (Table 19, symbol K); type: in vivo, Italian ryegrass (Lolium multiflorum); details: amount of applied herbicide 320 g/ha
In short: as §1

[22] = test system: barnyard grass; experiment: Test Example 4: herbicidal effect by soil treatment (Table 19, symbol H); type: in vivo, barnyard grass (Echinochloa crus-galli); details: amount of applied herbicide 320 g/ha
In short: as §1

[23] = test system: wild oat; experiment: Test Example 5: herbicidal effect by foliage application, plastic box (Table 20, symbol I); type: in vivo, wild oat (Avena fatua); details: foliage application, 320 g/ha
In short: as §3

[24] = test system: Italian ryegrass; experiment: Test Example 5: herbicidal effect by foliage application, plastic box (Table 20, symbol K); type: in vivo, Italian ryegrass (Lolium multiflorum); details: foliage application, 320 g/ha
In short: as §3

[25] = test system: chickweed; experiment: Test Example 5: herbicidal effect by foliage application, plastic box (Table 20, symbol P); type: in vivo, common chickweed (Stellaria media); details: foliage application, 320 g/ha
In short: as §3

[26] = test system: windgrass; experiment: Test Example 4: herbicidal effect by soil treatment (Table 19, symbol L); type: in vivo, windgrass (Apera spica-venti); details: amount of applied herbicide 320 g/ha
In short: as §1

[27] = test system: blackgrass; experiment: Test Example 5: herbicidal effect by foliage application, plastic box (Table 20, symbol J); type: in vivo, blackgrass (Alopecurus myosuroides); details: foliage application, 320 g/ha
In short: as §3

[28] = test system: green foxtail; experiment: Test Example 4: herbicidal effect by soil treatment (Table 19, symbol G); type: in vivo, green foxtail (Setaria viridis); details: amount of applied herbicide 320 g/ha
In short: as §1

[29] = test system: redroot pigweed; experiment: Test Example 4: herbicidal effect by soil treatment (Table 19, symbol N); type: in vivo, redroot pigweed (Amaranthus retroflexus); details: amount of applied herbicide 320 g/ha
In short: as §1

[30] = evaluated three weeks after application

## COc1cc(F)ccc1-c1sc2ccc(C)cc2c1-c1c(O)c(C)nn(C)c1=O [2-148]
[1]
  I: wild oat, herbicidal effect rating: 0 (Herbicidal rate of 5% or less (almost no effect))
[2]
  J: blackgrass, herbicidal effect rating: 3 (Herbicidal rate of 40% or more and less than 70%)
[3]
  herbicidal effect on H: barnyard grass: 5 (Herbicidal rate of 90% or more (almost completely withered))
[4]
  R: persian speedwell, herbicidal effect rating: 5 (Herbicidal rate of 90% or more (almost completely withered))
[5]
  Q: false cleavers, herbicidal effect rating: 5 (Herbicidal rate of 90% or more (almost completely withered))
[6]
  F: southern crabgrass, herbicidal effect rating: 3 (Herbicidal rate of 40% or more and less than 70%)
[7]; [30]
  herbicidal effect on M: velvetleaf (criteria 0-5): 4 (Herbicidal rate of 70% or more and less than 90%)
[8]; [30]
  herbicidal effect on G: green foxtail (criteria 0-5): 5 (Herbicidal rate of 90% or more (almost completely withered))
[9]
  herbicidal effect on E: rice flat sedge: 5 (Herbicidal rate of 90% or more (almost completely withered))
[10]
  M: velvetleaf, herbicidal effect rating: 3 (Herbicidal rate of 40% or more and less than 70%)
[11]; [30]
  herbicidal effect on Q: false cleavers (criteria 0-5): 5 (Herbicidal rate of 90% or more (almost completely withered))
[12]
  O: lambsquarters, herbicidal effect rating: 5 (Herbicidal rate of 90% or more (almost completely withered))
[13]
  herbicidal effect on D: Chinese sprangletop: 3 (Herbicidal rate of 40% or more and less than 70%)
[14]; [30]
  herbicidal effect on R: persian speedwell (criteria 0-5): 5 (Herbicidal rate of 90% or more (almost completely withered))
[15]; [30]
  herbicidal effect on H: barnyard grass (criteria 0-5): 5 (Herbicidal rate of 90% or more (almost completely withered))
[16]; [30]
  herbicidal effect on O: lambsquarters (criteria 0-5): 4 (Herbicidal rate of 70% or more and less than 90%)
[17]
  P: chickweed, herbicidal effect rating: 5 (Herbicidal rate of 90% or more (almost completely withered))
[18]; [30]
  herbicidal effect on F: southern crabgrass (criteria 0-5): 5 (Herbicidal rate of 90% or more (almost completely withered))
[19]; [30]
  herbicidal effect on N: redroot pigweed (criteria 0-5): 5 (Herbicidal rate of 90% or more (almost completely withered))
[20]; [30]
  herbicidal effect on L: windgrass (criteria 0-5): 3 (Herbicidal rate of 40% or more and less than 70%)
[21]
  K: Italian ryegrass, herbicidal effect rating: 1 (Herbicidal rate of 5% or more and less than 20%)
[22]
  H: barnyard grass, herbicidal effect rating: 4 (Herbicidal rate of 70% or more and less than 90%)
[23]; [30]
  herbicidal effect on I: wild oat (criteria 0-5): 3 (Herbicidal rate of 40% or more and less than 70%)
[24]; [30]
  herbicidal effect on K: Italian ryegrass (criteria 0-5): 4 (Herbicidal rate of 70% or more and less than 90%)
[25]; [30]
  herbicidal effect on P: chickweed (criteria 0-5): 5 (Herbicidal rate of 90% or more (almost completely withered))
[26]
  L: windgrass, herbicidal effect rating: 0 (Herbicidal rate of 5% or less (almost no effect))
[27]; [30]
  herbicidal effect on J: blackgrass (criteria 0-5): 4 (Herbicidal rate of 70% or more and less than 90%)

## CCCC(=O)Oc1c(C)nn(C)c(=O)c1-c1c(-c2ccc(OCC)cc2)sc2cc(OC)ccc12 [3-073]
[1]
  I: wild oat, herbicidal effect grade: 0 (Herbicidal rate of 5% or less (almost no effect))
[2]
  J: blackgrass, herbicidal effect grade: 0 (Herbicidal rate of 5% or less (almost no effect))
[4]
  R: persian speedwell, herbicidal effect grade: 4 (Herbicidal rate of 70% or more and less than 90%)
[5]
  Q: false cleavers, herbicidal effect grade: 2 (Herbicidal rate of 20% or more and less than 40%)
[6]
  F: southern crabgrass, herbicidal effect grade: 3 (Herbicidal rate of 40% or more and less than 70%)
[7]; three weeks after application
  M: velvetleaf, herbicidal effect grade: 3 (Herbicidal rate of 40% or more and less than 70%)
[8]; three weeks after application
  G: green foxtail, herbicidal effect grade: 0 (Herbicidal rate of 5% or less (almost no effect))
[10]
  M: velvetleaf, herbicidal effect grade: 0 (Herbicidal rate of 5% or less (almost no effect))
[11]; three weeks after application
  Q: false cleavers, herbicidal effect grade: 4 (Herbicidal rate of 70% or more and less than 90%)
[12]
  O: lambsquarters, herbicidal effect grade: 3 (Herbicidal rate of 40% or more and less than 70%)
[14]; three weeks after application
  R: persian speedwell, herbicidal effect grade: 5 (Herbicidal rate of 90% or more (almost completely withered))
[15]; three weeks after application
  H: barnyard grass, herbicidal effect grade: 0 (Herbicidal rate of 5% or less (almost no effect))
[28]
  G: green foxtail, herbicidal effect grade: 3 (Herbicidal rate of 40% or more and less than 70%)
[16]; three weeks after application
  O: lambsquarters, herbicidal effect grade: 2 (Herbicidal rate of 20% or more and less than 40%)
[17]
  P: chickweed, herbicidal effect grade: 4 (Herbicidal rate of 70% or more and less than 90%)
[18]; three weeks after application
  F: southern crabgrass, herbicidal effect grade: 2 (Herbicidal rate of 20% or more and less than 40%)
[19]; three weeks after application
  N: redroot pigweed, herbicidal effect grade: 3 (Herbicidal rate of 40% or more and less than 70%)
[20]; three weeks after application
  L: windgrass, herbicidal effect grade: 0 (Herbicidal rate of 5% or less (almost no effect))
[21]
  K: Italian ryegrass, herbicidal effect grade: 0 (Herbicidal rate of 5% or less (almost no effect))
[22]
  H: barnyard grass, herbicidal effect grade: 3 (Herbicidal rate of 40% or more and less than 70%)
[29]
  N: redroot pigweed, herbicidal effect grade: 4 (Herbicidal rate of 70% or more and less than 90%)
[23]; three weeks after application
  I: wild oat, herbicidal effect grade: 0 (Herbicidal rate of 5% or less (almost no effect))
[24]; three weeks after application
  K: Italian ryegrass, herbicidal effect grade: 0 (Herbicidal rate of 5% or less (almost no effect))
[25]; three weeks after application
  P: chickweed, herbicidal effect grade: 5 (Herbicidal rate of 90% or more (almost completely withered))
[26]
  L: windgrass, herbicidal effect grade: 0 (Herbicidal rate of 5% or less (almost no effect))
[27]; three weeks after application
  J: blackgrass, herbicidal effect grade: 0 (Herbicidal rate of 5% or less (almost no effect))
